Assay results published in patent US12331041B2, “GLP-1 receptor agonists and uses thereof” (Pfizer Inc., priority 2018, dated 2025).
Where a name gives a salt, the structure may show the parent alone.

Tests used:
human GLP-1R [1] = target: T1, human GLP-1R (Homo sapiens, UniProt P43220, G168S); test: CHO GLP-1R Clone H6 - Assay 1 (HTRF cAMP agonist assay); format: cell-based; settings: for EC50: CHO Clone H6, high GLP-1R density, cAMP, geometric mean; for Emax / Assay 1 Emax (%): CHO Clone H6, relative to saturating full agonist GLP-1 7-36 (1 μM), arithmetic mean
T1 construct: expressed in transfected cells
T1 sequence (P43220 24-463 G168S): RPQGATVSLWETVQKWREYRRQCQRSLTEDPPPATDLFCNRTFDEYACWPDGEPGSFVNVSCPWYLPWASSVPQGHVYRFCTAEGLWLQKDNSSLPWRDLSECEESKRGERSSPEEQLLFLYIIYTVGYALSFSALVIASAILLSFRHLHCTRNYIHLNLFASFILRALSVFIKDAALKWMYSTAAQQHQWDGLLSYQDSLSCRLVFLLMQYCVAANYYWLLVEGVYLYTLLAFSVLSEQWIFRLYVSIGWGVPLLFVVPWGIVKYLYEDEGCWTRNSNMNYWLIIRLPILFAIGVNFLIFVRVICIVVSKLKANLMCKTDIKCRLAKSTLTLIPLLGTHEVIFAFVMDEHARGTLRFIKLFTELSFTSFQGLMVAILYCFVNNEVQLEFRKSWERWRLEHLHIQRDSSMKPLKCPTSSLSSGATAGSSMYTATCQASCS
Description: GLP-1R-mediated agonist activity was determined with a cell-based functional assay utilizing an HTRF (Homogeneous Time-Resolved Fluorescence) cAMP detection kit (cAMP HI Range Assay Kit; CisBio cat #62AM6PEJ) that measures cAMP levels in the cell. The method is a competitive immunoassay between native cAMP produced by the cells and exogenous cAMP labeled with the dye d2, The tracer binding is visualized by a mAb anti-cAMP labeled with Cryptate. The specific signal (i.e. energy transfer) is inversely proportional to the concentration of cAMP in either standard or experimental sample.
The human GLP-1R coding sequence (NCBI Reference Sequence NP_002053.3, including naturally-occurring variant Gly168Ser) was subcloned into pcDNA3 (Invitrogen) and a cell line stably expressing the receptor was isolated (designated Clone H6).
(§1) A 1 mL sample of the cell suspension in growth media was counted on a Becton Dickinson ViCell to determine cell viability and cell count per mL. The remaining cell suspension was then adjusted with growth media to deliver 2000 viable cells per well using a Matrix Combi Multidrop reagent dispenser, and the cells were dispensed into a white 384 well tissue culture treated assay plate (Corning 3570). The assay plate was then incubated for 48 hours at 37° C. in a humidified environment in 5% carbon dioxide.
Varying concentrations of each compound to be tested (in DMSO) were diluted in assay buffer (HBSS with Calcium/Magnesium (Lonza/BioWhittaker cat #10-527F)/0.1% BSA (Sigma Aldrich cat #A7409-1L)/20 mM HEPES (Lonza/BioWhittaker cat #17-737E) containing 100 μM 3-isobutyl-1-methylxanthin (IBMX; Sigma cat #15879). The final DMSO concentration is 1%.
After 48 hours, the growth media was removed from the assay plate wells, and the cells were treated with 20 μL of the serially diluted compound in assay buffer for 30 minutes at 37° C. in a humidified environment in 5% carbon dioxide. Following the 30 minute incubation, 10 μL of labeled d2 cAMP and 10 μL of anti-cAMP antibody (both diluted 1:20 in cell lysis buffer; as described in the manufacturer's assay protocol) were added to each well of the assay plate. The plates were then incubated at room temperature and after 60 minutes, changes in the HTRF signal were read with an Envision 2104 multi-label plate reader using excitation of 330 nm and emissions of 615 and 665 nm. Raw data were converted to nM cAMP by interpolation from a cAMP standard curve (as described in the manufacturer's assay protocol) and the percent effect was determined relative to a saturating concentration of the full agonist GLP-17-36 (1 μM) included on each plate. EC50 determinations were made from agonist dose-response curves analyzed with a curve fitting program using a 4-parameter logistic dose response equation.

human GLP-1R [2] = target: T2, human GLP-1R (Homo sapiens, UniProt P43220, L260F); test: CHO GLP-1R Clone C6 - Assay 2 (HTRF cAMP agonist assay); format: cell-based; settings: for EC50: CHO clone C6, low GLP-1R density, cAMP, geometric mean; for Emax / Assay 2 Emax (%): CHO clone C6, relative to saturating full agonist GLP-1 (1 μM), arithmetic mean
T2 construct: expressed in transfected cells; host or cells: CHO Flp-In T-REx, clonal line C6 (pcDNA5-FRT-TO)
T2 sequence (P43220 24-463 L260F): as the sequence (P43220 24-463 G168S) above, with S145G, L237F counted along it
Description: GLP-1R-mediated agonist activity was determined with a cell-based functional assay utilizing an HTRF (Homogeneous Time-Resolved Fluorescence) cAMP detection kit (cAMP HI Range Assay Kit; Cis Bio cat #62AM6PEJ) that measures cAMP levels in the cell. The method is a competitive immunoassay between native cAMP produced by the cells and exogenous cAMP labeled with the dye d2. The tracer binding is visualized by a mAb anti-cAMP labeled with Cryptate. The specific signal (i.e. energy transfer) is inversely proportional to the concentration of cAMP in either a standard or an experimental sample.
The human GLP-1R coding sequence (NCBI Reference Sequence NP_002053.3, including naturally-occurring variant Leu260Phe) was subcloned into pcDNA5-FRT-TO and a clonal CHO cell line stably expressing a low receptor density was isolated using the Flp-In™ T-Rex™ System, as described by the manufacturer (ThermoFisher).
as §1, with “deliver 1600” for “deliver 2000”, “48 h” for “48 hours”, “environment (95% O2,” for “environment in”, “5% CO2)” for “5% carbon dioxide.”
Varying concentrations of each compound to be tested (in DMSO) were diluted in assay buffer [HBSS with Calcium/Magnesium (Lonza/BioWhittaker cat #10-527F)/0.1% BSA (Sigma Aldrich cat #A7409-1L)/20 mM HEPES (Lonza/BioWhittaker cat #17-737E)] containing 100 μM 3-isobutyl-1-methylxanthin (IBMX; Sigma cat #15879). The final DMSO concentration in the compound/assay buffer mixture is 1%.
After 48 h, the growth media was removed from the assay plate wells, and the cells were treated with 20 μL of the serially diluted compound in assay buffer for 30 min at 37° C. in a humidified environment (95% O2, 5% CO2). Following the 30 min incubation, 10 μL of labeled d2 cAMP and 10 μL of anti-cAMP antibody (both diluted 1:20 in cell lysis buffer; as described in the manufacturer's assay protocol) were added to each well of the assay plate. The plates were then incubated at room temperature and after 60 minutes, changes in the HTRF signal were read with an Envision 2104 multi-label plate reader using excitation of 330 nm and emissions of 615 and 665 nm. Raw data were converted to nM cAMP by interpolation from a cAMP standard curve (as described in the manufacturer's assay protocol) and the percent effect was determined relative to a saturating concentration of the full agonist GLP-1 (1 μM) included on each plate. EC50 determinations were made from agonist dose response curves analyzed with a curve fitting program using a 4-parameter logistic dose response equation.

Row | SMILES | EC50 (human GLP-1R [1]) | Emax (human GLP-1R [1]) | EC50 (human GLP-1R [2]) | Emax (human GLP-1R [2]) | Assay 1 Emax (%) (human GLP-1R [1]) | Assay 2 Emax (%) (human GLP-1R [2])
1 | N#Cc1ccc(COc2nc(N3CCC4(CC3)CC4c3nc4ccc(C(=O)O)cc4n3C[C@@H]3CCO3)c(F)cc2F)c(F)c1 (mixture of isomers) [Example 56, Ammonium 2-(6-{6-[(4-cyano-2-fluorobenzyl)oxy]-3,5-difluoropyridin-2-yl}-6-azaspiro[2.5]oct-1-yl)-1-[(2S)-oxetan-2-ylmethyl]-1H-benzimidazole-6-carboxylate] | 0.38 nM | 80% | 4.2 nM | 90% |  | 
2 | N#Cc1ccc(COc2cccc(N3CCC4(CC3)CC4c3nc4ccc(C(=O)O)cc4n3CC3CCO3)n2)c(F)c1 (single isomer, unassigned) [Example 35] | 330 nM | 85% | 13000 nM | 100% |  | 
3 | N#Cc1ccc(COc2cccc(N3CCC4(CC3)CC4c3nc4ccc(C(=O)O)cc4n3CC3CCO3)n2)c(F)c1 (single isomer, unassigned) [Example 36] | 0.48 nM |  | 15 nM |  | 83% | 90%
4 | O=C(O)c1ccc2nc(C3CC34CCN(c3nc(OCc5ccc(Cl)cc5F)ncc3F)CC4)n(CCn3cncn3)c2c1 (single isomer, unassigned) [Example 41, 2-(6-{2-[(4-chloro-2-fluorobenzyl)oxy]-5-fluoropyrimidin-4-yl}-6-azaspiro[2.5]oct-1-yl)-1-[2-(1H-1,2,4-triazol-1-yl)ethyl]-1H-benzimidazole-6-carboxylic acid, trifluoroacetate salt, from P7] | 7.6 nM | 84% | 130 nM | 96% |  | 
5 | COCCn1c(C2CC23CCN(c2cccc(OCc4ccc(Cl)cc4F)n2)CC3)nc2ncc(C(=O)O)cc21 (single isomer, unassigned) [Example 49, 2-(6-{6-[(4-chloro-2-fluorobenzyl)oxy]pyridin-2-yl}-6-azaspiro[2.5]oct-1-yl)-1-(2-methoxyethyl)-1H-imidazo[4,5-b]pyridine-6-carboxylic acid, ENT-2] | 18 nM |  | 290 nM | 87% | 75% | 
6 | O=C(O)c1ccc2nc(C3CC34CCN(c3ncc(F)c(OCc5ccc(Cl)cc5F)n3)CC4)n(CC3CCO3)c2c1 (single isomer, unassigned) [Example 50] | 0.71 nM | 78% | 19 nM | 80% |  | 
7 | O=C(O)c1ccc2nc(C3CC34CCN(c3ncc(F)c(OCc5ccc(Cl)cc5F)n3)CC4)n(CC3CCO3)c2c1 (single isomer, unassigned) [Example 51] | 470 nM |  | > 20000 nM |  | 71% | 
8 | N#Cc1ccc(COc2ccc(F)c(N3CCC4(CC3)CC4c3nc4ccc(C(=O)O)cc4n3CC3CCO3)n2)c(F)c1 (single isomer, unassigned) [Example 54] | 63 nM | 76% | 3400 nM | 93% |  | 
9 | N#Cc1ccc(COc2ccc(F)c(N3CCC4(CC3)CC4c3nc4ccc(C(=O)O)cc4n3CC3CCO3)n2)c(F)c1 (single isomer, unassigned) [Example 55] | 0.33 nM |  | 5.8 nM |  | 83% | 82%
10 | N#Cc1ccc(COc2nc(N3CCC4(CC3)CC4c3nc4ccc(C(=O)O)cc4n3CC3CCO3)ccc2F)c(F)c1 (single isomer, unassigned; ent-1) [Example 52] | 100 nM | 74% | 6400 nM | 100% |  | 
11 | N#Cc1ccc(COc2nc(N3CCC4(CC3)CC4c3nc4ccc(C(=O)O)cc4n3CC3CCO3)c(F)cc2F)c(F)c1 (single isomer, unassigned; ent-1) [Example 57] | 0.3 nM | 88% | 4.1 nM | 98% |  | 
12 | COCCn1c(C2CC23CCN(c2ccnc(OCc4ccc(Cl)cc4F)n2)CC3)nc2ccc(C(=O)O)cc21 (single isomer, unassigned; ent-2) [Example 47, Ammonium 2-(6-{2-[(4-chloro-2-fluorobenzyl)oxy]pyrimidin-4-yl}-6-azaspiro[2.5]oct-1-yl)-1-(2-methoxyethyl)-1H-benzimidazole-6-carboxylate, ENT-2] | 86 nM |  | 1700 nM | 100% | 92% | 
13 | N#Cc1ccc(COc2nc(N3CCC4(CC3)CC4c3nc4ccc(C(=O)O)cc4n3CC3CCO3)ccc2F)c(F)c1 (single isomer, unassigned; ent-2) [Example 53] | 0.57 nM |  | 14 nM |  | 83% | 90%
14 | O=C(O)c1ccc2nc(CC3CCC(c4cccc(OCc5ccc(Cl)cc5F)n4)CC3)n(C[C@@H]3CCO3)c2c1 (single isomer, unassigned; isomer 1) [Example 79] | > 12000 nM |  | > 20000 nM |  |  | 
15 | O=C(O)c1ccc2nc(CC3CCC(c4cccc(OCc5ccc(Cl)cc5F)n4)CC3)n(C[C@@H]3CCO3)c2c1 (single isomer, unassigned; isomer 2) [Example 80] | 12 nM | 98% | 160 nM | 100% |  | 
16 | O=C(O)c1ccc2nc(CN3CCC(c4cccnc4OCc4ccc(Cl)cc4F)CC3)n(C[C@@H]3CCO3)c2c1 [Example 1, Ammonium 2-[(4-{2-[(4-chloro-2-fluorobenzyl)oxy]pyridin-3-yl}piperidin-1-yl)methyl]-1-[(2S)-oxetan-2-ylmethyl]-1H-benzimidazole-6-carboxylate] | 1 nM | 84% | 20 nM | 95% |  | 
17 | CCn1cncc1Cn1c(CN2CCC(c3ccnc(OCc4ccc(Cl)cc4F)n3)CC2)nc2ccc(C(=O)O)cc21 [Example 63, 2-[(4-{2-[(4-chloro-2-fluorobenzyl)oxy]pyrimidin-4-yl}piperidin-1-yl)methyl]-1-[(1-ethyl-1H-imidazol-5-yl)methyl]-1H-benzimidazole-6-carboxylic acid] |  |  | 10 nM | 97% |  | 
